US5968907A (priority 1997, dated 1999)

How the values were obtained:
[1] = target: heat-labile enterotoxin from E. coli (Escherichia coli, UniProt P0CK94); assay type: binding; conditions: at the concentration employed in the assay
cholera toxin = cholera toxin (Vibrio cholerae serotype O1, UniProt P01556); test: biochemical; conditions: read-out: inhibition of binding of cholera toxin to ganglioside GD1b
CFA I pili = CFA I pili (Escherichia coli, UniProt P0CK93+P25734); test: biochemical; conditions: read-out: inhibition of CFA I pili binding to glycophorin
CFA I pili, sequence (P0CK93 24-170): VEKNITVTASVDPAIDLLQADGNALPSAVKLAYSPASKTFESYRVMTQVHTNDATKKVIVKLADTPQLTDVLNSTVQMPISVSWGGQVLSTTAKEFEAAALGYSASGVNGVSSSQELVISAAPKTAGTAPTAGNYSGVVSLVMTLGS
CFA I pili, sequence (P25734 23-360): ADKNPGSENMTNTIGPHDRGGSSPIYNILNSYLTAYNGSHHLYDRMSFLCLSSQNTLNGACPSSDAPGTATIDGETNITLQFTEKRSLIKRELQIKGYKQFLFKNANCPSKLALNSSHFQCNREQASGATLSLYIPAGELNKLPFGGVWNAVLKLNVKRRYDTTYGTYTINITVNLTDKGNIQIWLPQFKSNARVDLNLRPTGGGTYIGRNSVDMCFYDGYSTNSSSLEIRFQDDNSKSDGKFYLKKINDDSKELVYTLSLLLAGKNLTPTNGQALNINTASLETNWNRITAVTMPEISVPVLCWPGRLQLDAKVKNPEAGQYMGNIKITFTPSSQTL

cholera toxin, sequence (P01556 22-124 limits assumed): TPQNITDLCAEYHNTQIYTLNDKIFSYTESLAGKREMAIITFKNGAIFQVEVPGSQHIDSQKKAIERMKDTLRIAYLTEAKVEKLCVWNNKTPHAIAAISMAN
heat-labile enterotoxin from E. coli, sequence (P0CK94 whole entry, looked up): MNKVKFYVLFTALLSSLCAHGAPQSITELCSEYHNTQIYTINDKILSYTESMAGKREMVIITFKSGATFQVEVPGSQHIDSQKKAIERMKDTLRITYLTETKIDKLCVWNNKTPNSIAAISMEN

Compound | inhibition of binding of heat-labile enterotoxin to ganglioside GD1b [1] | inhibition at 1000 µg/mL (cholera toxin) [%] | inhibition at 1000 µg/mL (CFA I pili) [%]
OC[C@H]1O[C@@H](SC2CCCC2O)[C@H](O)[C@@H](O)[C@H]1O (stereo partly drawn) [Example A1, 2-Hydroxycyclopent-1-yl 1-Thio-β-D-galactopyranoside] | at least 20% | < 20 | –
OC[C@H]1O[C@@H](SCC2C3CCC(C3)C2O)[C@H](O)[C@@H](O)[C@H]1O (stereo partly drawn) [Example A4, (3-Hydroxynorborn-2-yl)methyl 1-Thio-β-D-galactopyranoside] | at least 20% | < 20 | –
OC[C@H]1O[C@@H](SC2CCC(O)C2)[C@H](O)[C@@H](O)[C@H]1O (stereo partly drawn) [Example A7, 3-Hydroxycyclopent-1-yl 1-Thio-β-D-galactopyranoside] | < 20% | < 20 | –
OC[C@H]1O[C@@H](SC2CCCC(O)C2)[C@H](O)[C@@H](O)[C@H]1O (stereo partly drawn) [Example A10, 3-Hydroxycyclohex-1-yl 1-Thio-β-D-galactopyranoside] | at least 20% | < 20 | –
NC1CCCC1S[C@@H]1O[C@H](CO)[C@H](O)[C@H](O)[C@H]1O (stereo partly drawn) [Example B1, 2-Aminocyclopent-1-yl 1-Thio-β-D-galactopyranoside] | at least 20% | < 20 | –
NC1C2CCC(C2)C1CS[C@@H]1O[C@H](CO)[C@H](O)[C@H](O)[C@H]1O (stereo partly drawn) [Example B4, (3-Aminonorborn-2-yl)methyl 1-Thio-β-D-galactopyranoside] | at least 20% | < 20 | –
NC1CCCCC(S[C@@H]2O[C@H](CO)[C@H](O)[C@H](O)[C@H]2O)C1 (stereo partly drawn) [Example B5, 3-Aminocyclohept-1-yl 1-Thio-β-D-galactopyranoside] | – | – | 13 to 71
NC1CCC(S[C@@H]2O[C@H](CO)[C@H](O)[C@H](O)[C@H]2O)C1 (stereo partly drawn) [Example B7, 3-Aminocyclopent-1-yl 1-Thio-β-D-galactopyranoside] | at least 20% | ≥ 20 | –
NC1CCCC(S[C@@H]2O[C@H](CO)[C@H](O)[C@H](O)[C@H]2O)C1 (stereo partly drawn) [Example B10, 3-Aminocyclohex-1-yl 1-Thio-β-D-galactopyranoside] | at least 20% | < 20 | –
CC(=O)NC1CCCCC(S[C@@H]2O[C@H](CO)[C@H](O)[C@H](O)[C@H]2O)C1 (stereo partly drawn) [Example C5, 3-Acetamidocyclohept-1-yl 1-Thio-β-D-galactopyranoside] | at least 20% | ≥ 20 | –
CC(=O)NC1CCC(S[C@@H]2O[C@H](CO)[C@H](O)[C@H](O)[C@H]2O)C1 (stereo partly drawn) [Example C7, 3-Acetamidocyclopent-1-yl 1-Thio-β-D-galactopyranoside] | at least 20% | ≥ 20 | –
CC(=O)NC1CCCC(S[C@@H]2O[C@H](CO)[C@H](O)[C@H](O)[C@H]2O)C1 (stereo partly drawn) [Example C10, 3-Acetamidocyclohexyl 1-Thio-β-D-galactopyranoside] | < 20% | ≥ 20 | –
CC(=O)NC1CC(S[C@@H]2O[C@H](CO)[C@H](O)[C@H](O)[C@H]2O)CCC1(C)C (stereo partly drawn) [Example C11, 3-Acetamido-4,4-dimethylcyclohexyl 1-Thio-β-D-galactopyranoside] | at least 20% | – | –
O=C(O)c1ccccc1C(=O)NC1CCCCC1S[C@@H]1O[C@H](CO)[C@H](O)[C@H](O)[C@H]1O (stereo partly drawn) [Example D2, 2-(2-Carboxybenzamido)cyclohex-1-yl 1-Thio-β-D-galactopyranoside] | < 20% | – | –
O=C(O)c1ccccc1C(=O)NC1C2CCC(C2)C1CS[C@@H]1O[C@H](CO)[C@H](O)[C@H](O)[C@H]1O (stereo partly drawn) [Example D4, [3-(Carboxybenzamido)norborn-2-yl]methyl 1-Thio-β-D-galactopyranoside] | at least 20% | – | –
O=C(O)c1ccccc1C(=O)NC1CCCCC(S[C@@H]2O[C@H](CO)[C@H](O)[C@H](O)[C@H]2O)C1 (stereo partly shown) [Example D5, 3-(2-Carboxybenzamido)cyclohept-1-yl 1-Thio-βD-galactopyranoside] | at least 20% | ≥ 20 | –
O=C(O)CNC1CCCC1S[C@@H]1O[C@H](CO)[C@H](O)[C@H](O)[C@H]1O (stereo partly drawn) [Example E1, Nα-[2-(1-Thio-β-D-galactopyranosyl)cyclopent-1-yl]glycine] | at least 20% | ≥ 20 | –
O=C(O)CNC1CCCCC1S[C@@H]1O[C@H](CO)[C@H](O)[C@H](O)[C@H]1O (stereo partly drawn) [Example E2, Nα-[2-(1-Thio-β-D-galactopyranosyl)cyclohex-1-yl]gIycine] | at least 20% | – | –

Compound | inhibition of binding of heat-labile enterotoxin to ganglioside GD1b [1] | inhibition at 1000 µg/mL (cholera toxin) [%] | inhibition at 1000 µg/mL (CFA I pili) [%]
O=C(O)CNC1C2CCC(C2)C1CS[C@@H]1O[C@H](CO)[C@H](O)[C@H](O)[C@H]1O (stereo partly drawn) [Example E4, Nα-[3-((1-Thio-β-D-galactopyranosyl)methyl)norborn-2-yl]glycine] | at least 20% | – | –
O=C(O)CNC1CCCC(S[C@@H]2O[C@H](CO)[C@H](O)[C@H](O)[C@H]2O)C1 (stereo partly drawn) [Example E10, Nα-[3-(1-Thio-β-D-galactopyranosyl)cyclohex-1-yl]glycine] | at least 20% | – | –
CC1(C)CCC(S[C@@H]2O[C@H](CO)[C@H](O)[C@H](O)[C@H]2O)CC1NCC(=O)O (stereo partly drawn) [Example E11, Nα-[5-(1-Thio-β-D-galactopyranosyl)-2 ,2-dimethylcyclohex-1-yl]glycine] | at least 20% | – | –
O=C(O)CCNC1CCCC1S[C@@H]1O[C@H](CO)[C@H](O)[C@H](O)[C@H]1O (stereo partly drawn) [Example F1, Nβ-[2-(1-Thio-β-D-galactopyranosyl)cyclopent-1-yl]-β-alanin] | at least 20% | < 20 | –
O=C(O)CCNC1CCCCC1S[C@@H]1O[C@H](CO)[C@H](O)[C@H](O)[C@H]1O (stereo partly drawn) [Example F2, Nβ-[2-(1-Thio-β-D-galactopyranosyl)cyclohex-1-yl]-β-alanine] | at least 20% | – | –
O=C(O)CCNC1CCCCC(S[C@@H]2O[C@H](CO)[C@H](O)[C@H](O)[C@H]2O)C1 (stereo partly drawn) [Example F5, Nβ-[3-(1-Thio-β-D-galactopyranosyl)cyclohept-1-yl]-β-alanine] | at least 20% | < 20 | –
O=C(O)CCNC1CCC(S[C@@H]2O[C@H](CO)[C@H](O)[C@H](O)[C@H]2O)C1 (stereo partly drawn) [Example F7, N-β-[3-(1-Thio-β-D-galactopyranosyl)cyclopent-1-yI]-β-alanine] | at least 20% | < 20 | –
O=C(O)CCNC1CCCC(S[C@@H]2O[C@H](CO)[C@H](O)[C@H](O)[C@H]2O)C1 (stereo partly drawn) [Example F10, Nβ-[3-(1-Thio-β-D-galactopyranosyl)cyclohex-1-yl]-β-alanine] | at least 20% | < 20 | –
CC1(C)CCC(S[C@@H]2O[C@H](CO)[C@H](O)[C@H](O)[C@H]2O)CC1NCCC(=O)O (stereo partly drawn) [Example F11, N-β-[5-(1-Thio-α-D-galactopyranosyl)-2,2-dimethylcyclohex-1-yl]-β-alanine] | at least 20% | – | –
CC(C)C[C@H](NC1CCCCC1S[C@@H]1O[C@H](CO)[C@H](O)[C@H](O)[C@H]1O)C(=O)O (stereo partly drawn) [Example G2, Nα-[2-(1-Thio-β-D-galactopyranosyl)cyclohex-1-yl]-L-leucine] | < 20% | ≥ 20 | –
CC(C)C[C@H](NC1CCCCC(S[C@@H]2O[C@H](CO)[C@H](O)[C@H](O)[C@H]2O)C1)C(=O)O (stereo partly drawn) [Example G5, Nα-[1-(1-Thio-β-D-galactopyranosyl)cyclohept-3-yl]-L,Ieucine] | at least 20% | ≥ 20 | –
O=C(O)[C@H](Cc1c[nH]cn1)NC1CCCCC1S[C@@H]1O[C@H](CO)[C@H](O)[C@H](O)[C@H]1O (stereo partly drawn) [Example H2, Nα-[2-(1-Thio-β-D-galactopyranosyl)cyclohex-1-yl]-L-histidine] | – | < 20 | 13 to 71
CC(CC(S[C@@H]1O[C@H](CO)[C@H](O)[C@H](O)[C@H]1O)c1ccccc1)N[C@@H](Cc1c[nH]cn1)C(=O)O (stereo partly drawn) [Example H3, Nα-[4-Phenyl-4-(1-thio-β-D-galactopyranosyl)but-2-yl]-L-histidine] | – | ≥ 20 | 13 to 71
CC1(C)CC(N[C@@H](Cc2c[nH]cn2)C(=O)O)CC1S[C@@H]1O[C@H](CO)[C@H](O)[C@H](O)[C@H]1O (stereo partly drawn) [Example H6, Nα-[4,4-Dimethyl-3-(1-thio-β-D-galactopyranosyl)-cyclopent-1-yl]-L-histidine] | – | – | 13 to 71
O=C(O)[C@H](Cc1c[nH]cn1)NC1CCC(S[C@@H]2O[C@H](CO)[C@H](O)[C@H](O)[C@H]2O)C1 (stereo partly drawn) [Example H7, Nα-[3-(1-Thio-β-D-galactopyranosyl)cyclopent-1-yl]-L-histidine] | – | – | 13 to 71
O=C(O)[C@H](Cc1c[nH]c2ccccc12)NC1CCCCC(S[C@@H]2O[C@H](CO)[C@H](O)[C@H](O)[C@H]2O)C1 (stereo partly drawn) [Example I5, Nα-[3-(1-Thio-β-D-galactopyranosyl)cyclohept-1-yl]-L-tryptophan] | at least 20% | ≥ 20 | –
N=C(N)NCCC[C@H](NC1CCC(S[C@@H]2O[C@H](CO)[C@H](O)[C@H](O)[C@H]2O)C1)C(=O)O (stereo partly drawn) [Example J7, Nα-[3-(1-Thio-β-D-galactopyranosyl)cyclopent-1-yl]-L-arginine] | at least 20% | < 20 | –
